Data from US20040023978A1, “Active salt forms with tyrosine kinase activity” (priority 2002, published 2004).
Where two headings read alike, the source gives them in different places.

Columns and labels:
[1] = Solubility at room temperature (HPLC isocratic method); assay type: physicochemical
[2] = Stability of the crystal form (XRPD, hot-stage XRPD)
From the text: The mesylate salt (Form A) was further studied using hot-stage XRPD. […] The dehydration could also be achieved by suspending the mesylate monohydrate in hot acetonitrile.

[3] = Hygroscopicity, step isotherm at 25° C.; assay type: physicochemical; conditions: 90-95% RH
Method: The hygroscopicity of the mesylate salt was determined at 25° C. using a step isotherm program for relative humidities from 0 to 95% RH following drying at 40° C./0%RH for two hours.

| solubility ([1]; aqueous with cosolvent or surfactant or cyclodextrin, thermodynamic from solid, 10% HP-βCD, pH adjusted with 0.1 N HCl to about pH 3, room temperature, read-out: Solubility) [mg/mL] | solubility ([1]; aqueous with cosolvent or surfactant or cyclodextrin, thermodynamic from solid, 15% HP-βCD, pH adjusted with 0.1 N HCl to about pH 3, room temperature, read-out: Solubility) [mg/mL] | solubility ([1]; aqueous with cosolvent or surfactant or cyclodextrin, thermodynamic from solid, 20% HP-βCD, pH adjusted with 0.1 N HCl to about pH 3, room temperature, read-out: Solubility) [mg/mL] | solubility ([1]; aqueous with cosolvent or surfactant or cyclodextrin, thermodynamic from solid, 25% HP-βCD, pH adjusted with 0.1 N HCl to about pH 3, room temperature, read-out: Solubility) [mg/mL] | solubility ([1]; aqueous with cosolvent or surfactant or cyclodextrin, thermodynamic from solid, 25% PEG/10% EtOH, room temperature, read-out: Solubility) [mg/mL] | solubility ([1]; aqueous with cosolvent or surfactant or cyclodextrin, thermodynamic from solid, 30% PG/10% EtOH, room temperature, read-out: Solubility) [mg/mL] | solubility ([1]; organic solvent or mixture, thermodynamic from solid, Ethanol, room temperature, read-out: Solubility) [mg/mL] | solubility ([1]; organic solvent or mixture, thermodynamic from solid, IPA, room temperature, read-out: Solubility) [mg/mL] | solubility ([1]; organic solvent or mixture, thermodynamic from solid, PEG, room temperature, read-out: Solubility) [mg/mL] | solubility ([1]; organic solvent or mixture, thermodynamic from solid, PG, room temperature, read-out: Solubility) [mg/mL] | solubility ([1]; thermodynamic from solid, water, room temperature (Table I), read-out: Solubility) [mg/mL] | solubility ([1]; water (text b274), read-out: solubility in water) [mg/mL] | Molecule | stability of the form under ambient conditions ([2]; ambient conditions overnight) | behaviour of the aqueous solution on aging ([2]; water, aged for two days, recovered solid by XRPD the monohydrate (Form A)) | weight gain [3] |
| --- | --- | --- | --- | --- | --- | --- | --- | --- | --- | --- | --- | --- | --- | --- | --- |
| 27.1 | 35.3 | 40.7 | 45 | 11.6 | 13.6 | 0.98 | 0.64 | 1.41 | 30.4 | 6.65 | 4.7 | CNC(=O)N1CCN(Cc2ccnc(Nc3ncc(C#N)s3)c2)CC1.CS(=O)(=O)O [mesylate salt (Form A), 1-({2-[(5-cyano-1,3-thiazol-2-yl)amino]pyridin-4-yl}methyl)-4-[(methylamino)carbonyl]piperazin-1-ium methanesulfonate] |  |  |  |
|  |  |  |  |  |  |  |  |  |  |  |  | 1-({2-[(5-cyano-1,3-thiazol-2-yl)amino]pyridin-. 4-yl}methyl)-4-[(methylamino)carbonyl]piperazin-1-ium methanesulfonate [dehydrated mesylate salt (Form B)] | stable | a white precipitate was noticed | about 1.2 % wt. |
